This note sets out measurements from article PMC12006963, “Application of Deuterium in an M1 Positive Allosteric Modulator Back-Up Program: The Discovery of VU6045422” (ACS Chemical Neuroscience, 2025).

Where two headings read alike, the source gives them in different places. A value given as a limit tells only on which side of the number the result lay.

The target in one data set is T1, rM1 (Rattus norvegicus, UniProt P08482).
T1 sequence (P08482 1-460): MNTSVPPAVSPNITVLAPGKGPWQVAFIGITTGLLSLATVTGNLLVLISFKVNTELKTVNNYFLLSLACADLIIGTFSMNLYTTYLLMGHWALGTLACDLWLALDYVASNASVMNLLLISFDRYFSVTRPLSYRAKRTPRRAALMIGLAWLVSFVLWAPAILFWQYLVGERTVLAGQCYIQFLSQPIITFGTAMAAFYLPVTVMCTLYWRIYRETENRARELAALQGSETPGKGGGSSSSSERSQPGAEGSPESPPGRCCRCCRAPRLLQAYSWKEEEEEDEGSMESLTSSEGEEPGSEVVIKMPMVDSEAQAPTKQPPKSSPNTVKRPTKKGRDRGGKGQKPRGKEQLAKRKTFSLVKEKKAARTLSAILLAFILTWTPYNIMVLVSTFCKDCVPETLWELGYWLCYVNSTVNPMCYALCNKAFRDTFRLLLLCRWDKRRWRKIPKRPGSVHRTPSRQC
Nature of the data set: Calcium mobilization, rat M1 (agonist and PAM modes). Type of data set: cell-based.

Data set [1] in a line: Plasma protein binding, equilibrium dialysis (human). The data set is classed as in vitro ADME. The note with it: pH 7.4, read-out: fu,plasma. How it is done: page 5: Drug Metabolism Methods: In vitro Plasma protein binding and Brain homogenate binding: Determination of fraction unbound (f u) in plasma was conducted in vitro via equilibrium dialysis using HTDialysis (HTD) membrane plates. The top half of the plate was filled with 100 uL of Dubelco’s Phosphate Buffered Saline, pH 7.4 (DPBS). Compounds were diluted into plasma from each species (5 µM final concentration), which was aliquoted in triplicate to the ‘bottom half’ of the prepared HTD plate wells. The HTD plate was sealed and incubated for 6 hours at 37 °C. Following incubation, each well (both top and bottom halves) were transferred (20 µL) to the corresponding wells of a 96- shallow-well (V-bottom) plate. The daughter plates were then matrix-matched (DPBS side wells received equal volume of plasma, and plasma side wells received equal volume of DPBS), and extraction solution (120 µL; acetonitrile containing 50 nM carbamazepine as IS) was added to all wells of both daughter plates to precipitate protein and extract test article. The plates were then sealed and centrifuged (3500 rcf) for 10 minutes at ambient temperature. Supernatant (60 µL) from each well of the daughter plates was then transferred to the corresponding wells of new daughter plates (96-shallow-well, V bottom) containing water (Milli-Q, 60 µL/well), and the plates were sealed in preparation for LC-MS/MS analysis (see LC-MS/MS analysis method below). The unbound fraction (f u) was calculated following the equation below, and mean values for each species were calculated from 3 replicates. […] Fraction unbound for both plasma and brain samples was determined using Equation 4. f = Concbuffer u Concplasma Equation 4 Determination of fraction unbound in plasma. […]

In another data set the target is T2, CYP 1A2 (Homo sapiens, UniProt P05177).
T2 sequence (P05177 1-516): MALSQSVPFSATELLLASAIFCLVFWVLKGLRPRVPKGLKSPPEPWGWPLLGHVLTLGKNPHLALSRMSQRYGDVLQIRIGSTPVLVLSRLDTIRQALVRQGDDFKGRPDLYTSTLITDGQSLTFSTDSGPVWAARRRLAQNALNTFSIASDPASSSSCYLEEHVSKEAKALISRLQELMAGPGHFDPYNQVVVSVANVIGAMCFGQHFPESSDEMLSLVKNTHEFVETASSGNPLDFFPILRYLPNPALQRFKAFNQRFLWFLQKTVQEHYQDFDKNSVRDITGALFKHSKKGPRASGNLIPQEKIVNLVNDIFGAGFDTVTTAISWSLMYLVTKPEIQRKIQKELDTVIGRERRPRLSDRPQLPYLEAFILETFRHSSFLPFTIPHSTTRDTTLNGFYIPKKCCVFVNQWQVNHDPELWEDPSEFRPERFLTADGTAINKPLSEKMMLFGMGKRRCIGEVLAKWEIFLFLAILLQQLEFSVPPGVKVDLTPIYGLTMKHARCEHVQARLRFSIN
In words: CYP inhibition 1A2. Type of data set: in vitro ADME. The source says: (§1) Table 1 Pharmacology and In Vitro DMPK Profiles of M1 PAMs 1, 3, and 5 | column: 1; 3; 5

The target in a further data set is CYP 2C9 (Homo sapiens, UniProt P11712). Nature of the data set: CYP inhibition 2C9. The data set is classed as in vitro ADME.
From the text: as §1

The next data set deals with CYP 2D6 (Homo sapiens, UniProt P10635). Nature of the data set: CYP inhibition 2D6. Type of data set: in vitro ADME.
From the text: as §1

Data set [2] in a line: Hepatocyte metabolite identification (human). Type of data set: in vitro ADME. The note with it: human hepatocytes, 4 h incubation. The procedure: Prior to full characterization of deuterated analogues 3 and 5, they were incubated in rat, dog, monkey, and human hepatocytes, along with 1, to determine the amount of parent remaining, as well as the degree of undesired oxidative metabolites 2, 4, and 6 (Figure 2). […] For the gem-dideutero congener 3, metabolic stability was improved in vitro. […] Thus, in hepatocytes in vitro, the kinetic isotope effect engendered greater metabolic stability of the labile hot spot on the lactam. It remained to be seen if this effect would translate in vivo, but we first had to assess the impact of the deuterated analogues on molecular pharmacology, in vitro DMPK, standard low-dose in vivo DMPK and, if warranted, in vivo efficacy in a rat novel object recognition (NOR) behavioral assay.

Data set [3] in a line: In vivo IV/PO pharmacokinetics, rat. As to conditions: rat (SD), dose iv/po mg/kg: 1 1/3, 3 1/10, 5 1/10; for clearance / Vd / half-life: Sprague-Dawley, plasma, 1 mg/kg; for clearance: read-out: CLp; for Vd: read-out: Vss; for half-life: read-out: elimination t1/2 (converted).
[4] abbreviates: PAM mode, read-out: rM1 PAM EC50.
[5] abbreviates: agonist mode, read-out: rM1 Agonist EC50.

Sequence of CYP 2D6 (P10635 whole entry): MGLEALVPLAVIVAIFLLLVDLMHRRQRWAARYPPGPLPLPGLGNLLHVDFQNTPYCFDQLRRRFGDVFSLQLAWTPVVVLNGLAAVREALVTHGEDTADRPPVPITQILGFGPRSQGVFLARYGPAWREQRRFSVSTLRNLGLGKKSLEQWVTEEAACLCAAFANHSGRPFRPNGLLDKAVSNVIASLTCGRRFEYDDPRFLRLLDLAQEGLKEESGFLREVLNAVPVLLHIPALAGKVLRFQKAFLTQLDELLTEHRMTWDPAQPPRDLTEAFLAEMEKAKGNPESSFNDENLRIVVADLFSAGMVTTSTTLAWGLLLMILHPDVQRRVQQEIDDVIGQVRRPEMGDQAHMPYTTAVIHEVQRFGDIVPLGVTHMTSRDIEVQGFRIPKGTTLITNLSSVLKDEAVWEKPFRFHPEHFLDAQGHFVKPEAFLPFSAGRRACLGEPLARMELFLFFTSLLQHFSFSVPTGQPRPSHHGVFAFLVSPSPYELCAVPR
Sequence of CYP 2C9 (P11712 whole entry): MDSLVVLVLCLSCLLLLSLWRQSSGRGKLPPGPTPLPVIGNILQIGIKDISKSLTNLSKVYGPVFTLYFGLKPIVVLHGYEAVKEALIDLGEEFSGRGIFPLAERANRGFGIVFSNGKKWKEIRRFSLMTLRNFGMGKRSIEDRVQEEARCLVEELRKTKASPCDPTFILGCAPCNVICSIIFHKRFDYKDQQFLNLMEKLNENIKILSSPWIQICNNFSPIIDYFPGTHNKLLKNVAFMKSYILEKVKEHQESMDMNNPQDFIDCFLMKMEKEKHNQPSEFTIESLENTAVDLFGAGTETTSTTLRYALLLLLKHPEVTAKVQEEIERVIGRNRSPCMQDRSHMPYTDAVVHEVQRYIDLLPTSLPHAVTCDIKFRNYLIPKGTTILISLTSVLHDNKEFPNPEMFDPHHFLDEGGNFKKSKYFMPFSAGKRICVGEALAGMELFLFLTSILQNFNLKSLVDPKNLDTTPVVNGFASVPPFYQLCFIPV

As to `Cn1cc2c(-c3cc(F)c(CN4Cc5ncccc5C4=O)c(F)c3)cccc2n1` [compound 1], the “rM1 PAM AChmax (%)” value at rM1 is recorded as 79%. Also, the EC50 at rM1 (setting [4]) is 0.213 µM. For the same compound, the EC50 on rM1 (setting [5]) is greater than 30 µM. Besides, in data set [1], the fraction unbound at 6 h, 5 µM was found to be 0.034. In addition, at CYP 1A2, the IC50 turned out to be 14.2 µM. In addition, at CYP 2C9, the IC50 is greater than 30 µM. The same compound came in with a half-inhibitory concentration (IC50) against CYP 2D6 greater than 30 µM. Further, in data set [2], the “% Total Peak Area, parent remaining” value was determined as 65.1%. In data set [3], the clearance is 3 mL/min/kg, the Vd came to 0.67 L/kg, the half-life is 3 h and the “F (%) po” value is 93%.

Consider `[2H]C1([2H])c2ncccc2C(=O)N1Cc1c(F)cc(-c2cccc3nn(C)cc23)cc1F` [compound 3], for which the “rM1 PAM AChmax (%)” value on rM1 is on record as 85%. In addition, the EC50 at rM1 (setting [4]) was 0.361 µM. The EC50 at rM1 (setting [5]) was greater than 30 µM. The fraction unbound at 6 h, 5 µM in data set [1] was found to be 0.051. This compound also gave an IC50 against CYP 1A2 greater than 30 µM. The same compound displayed an IC50 at CYP 2C9 of 17.4 µM. The IC50 at CYP 2D6 was greater than 30 µM. For the same compound, the “% Total Peak Area, parent remaining” value in data set [2] was 82.6%. In addition, in data set [3], the clearance came to 5.5 mL/min/kg, the Vd was 1.4 L/kg, the half-life is 3 h and the “F (%) po” value is 100%.

In the case of `[2H]C1([2H])c2ncccc2C(=O)N1Cc1c(F)cc(-c2cccc3nn(C([2H])([2H])[2H])cc23)cc1F` [compound 5], the “rM1 PAM AChmax (%)” value on rM1 was determined as 82%. The EC50 at rM1 (setting [4]) was 0.249 µM; at rM1 (setting [5]), greater than 30 µM. In data set [1], the fraction unbound at 6 h, 5 µM was found to be 0.036. Also, the IC50 against CYP 1A2 was greater than 30 µM; against CYP 2C9 it was 8.8 µM; against CYP 2D6, greater than 30 µM. In data set [2], the “% Total Peak Area, parent remaining” value was determined as 92.3%. For the same compound, the clearance in data set [3] was determined as 4.8 mL/min/kg. Moreover, the Vd in data set [3] is 1.1 L/kg. Further, the half-life in data set [3] was 3.6 h. In data set [3], the “F (%) po” value is on record as 100%.
